Values quoted from earlier work, collected in patent US20160074320A1, “PHARMACEUTICAL COMPOSTIONS COMPRISING KISSPEPTIN OR DERIVATIVES THEREOF” (OURO FINO SAÚDE ANIMAL LTDA, priority 2013, published 2016).
Ends that are not written are not given here.

What was measured:
sheep [1] = conditions: Kp-10 applied 30 h after removal of intra-vaginal progesterone device (CIDR)
sheep [2] = conditions: sheep in anestrus, low and sustained (30 to 48 h) doses IV

Kp-10: 10 amino acid fragment cleaved from kisspeptin, the 145 amino acid protein encoded by Kiss-1 gene (YNWNSFGLRF; ends and bridges not checked; UniProt Q15726 112-121, looked up, fragment)
peak of LH, time after removal of CIDR (sheep [1]): ~32 h | ovulation, share of animals (sheep [2]): more than 80% | hormone release (prepubertal heifers; IV administration): induces the release of LH and growth hormone (GH) | LH pulses (Redmond and collaborators) (prepubertal heifers; IV injections): increase of frequency and amplitude of the pulses of LH
